According to ChEMBL document CHEMBL3885881, “DrugMatrix”:

Species on record: Rattus norvegicus
Assay: DrugMatrix - Regimen: Daily Repeat
Assay type: toxicity, organism-based, Sprague-Dawley
Design: regimen Daily Repeat, gender Male, age 6-8 weeks
Conditions: in vivo, sc, 260 mg/kg, route subcutaneous, dose level Low, […]; for ABSOLUTE BASOPHIL / ABSOLUTE EOSINOPHIL / ABSOLUTE LYMPHOCYTE / ABSOLUTE MONOCYTE / ABSOLUTE SEGMENTED NEUTROPHIL / BASOPHIL / EOSINOPHIL / ERYTHROCYTE COUNT / HEMATOCRIT / HEMOGLOBIN / LEUKOCYTE COUNT / LYMPHOCYTE / MEAN CORPUSCULAR HEMOGLOBIN / MEAN CORPUSCULAR HEMOGLOBIN CONCENTRATION / MEAN CORPUSCULAR VOLUME / MONOCYTE / NEUTROPHIL / NUCLEATED RED BLOOD CELLS / PLATELET COUNT: tissue Blood; for ALANINE AMINOTRANSFERASE / ALBUMIN / ALKALINE PHOSPHATASE / ASPARTATE AMINOTRANSFERASE / BLOOD UREA NITROGEN / CARBON DIOXIDE / CHLORIDE / CHOLESTEROL / CREATINE PHOSPHOKINASE / CREATININE / GLUCOSE / LACTATE DEHYDROGENASE / LIPASE / PHOSPHORUS / POTASSIUM / SODIUM / TOTAL BILIRUBIN / TOTAL PROTEIN / URIC ACID: tissue Plasma

## c1ccc2sc(SSc3nc4ccccc4s3)nc2c1 [BENZOTHIAZYL DISULFIDE]
72 h, time 3 day
  ABSOLUTE BASOPHIL: 0 CELLS/uL
  ABSOLUTE EOSINOPHIL: 108 CELLS/uL
  ABSOLUTE LYMPHOCYTE: 9435.33 CELLS/uL
  ABSOLUTE MONOCYTE: 328 CELLS/uL
  ABSOLUTE SEGMENTED NEUTROPHIL: 1062 CELLS/uL
  BASOPHIL: 0%
  EOSINOPHIL: 1%
  ERYTHROCYTE COUNT: 5.25 x10E6/uL
  HEMATOCRIT: 33.03%
  HEMOGLOBIN: 12.27 G/DL
  LEUKOCYTE COUNT: 10.93 x10E3/uL
  LYMPHOCYTE: 86.33%
  MEAN CORPUSCULAR HEMOGLOBIN: 23.33 pg
  MEAN CORPUSCULAR HEMOGLOBIN CONCENTRATION: 37.13 G/DL
  MEAN CORPUSCULAR VOLUME: 62.87 fL
  MONOCYTE: 3%
  NEUTROPHIL: 9.67%
  NUCLEATED RED BLOOD CELLS: 0 /100WBC
  PLATELET COUNT: 1377.33 x10E3/uL
  ALANINE AMINOTRANSFERASE: 42 u/L
  ALBUMIN: 3.87 G/DL
  ALKALINE PHOSPHATASE: 365.33 u/L
  ASPARTATE AMINOTRANSFERASE: 91.67 u/L
  BLOOD UREA NITROGEN: 16 mg/dL
  CARBON DIOXIDE: 26 mmol/L
  CHLORIDE: 105.33 MEQ/L
  CHOLESTEROL: 77.33 mg/dL
  CREATINE PHOSPHOKINASE: 411.33 u/L
  CREATININE: 0.21 mg/dL
  GLUCOSE: 149.33 mg/dL
  LACTATE DEHYDROGENASE: 600.33 u/L
  LIPASE: 8.67 u/L
  PHOSPHORUS: 12.73 mg/dL
  POTASSIUM: 6.51 MEQ/L
  SODIUM: 145.03 MEQ/L
  TOTAL BILIRUBIN: 0.17 mg/dL
  TOTAL PROTEIN: 5.4 G/DL
  URIC ACID: 1.47 mg/dL
120 h, time 5 day
  ABSOLUTE BASOPHIL: 0 CELLS/uL
  ABSOLUTE EOSINOPHIL: 214.33 CELLS/uL
  ABSOLUTE LYMPHOCYTE: 15055 CELLS/uL
  ABSOLUTE MONOCYTE: 283.33 CELLS/uL
  ABSOLUTE SEGMENTED NEUTROPHIL: 1280.67 CELLS/uL
  BASOPHIL: 0%
  EOSINOPHIL: 1.33%
  ERYTHROCYTE COUNT: 5.49 x10E6/uL
  HEMATOCRIT: 34.87%
  HEMOGLOBIN: 13.17 G/DL
  LEUKOCYTE COUNT: 16.83 x10E3/uL
  LYMPHOCYTE: 89.33%
  MEAN CORPUSCULAR HEMOGLOBIN: 24.1 pg
  MEAN CORPUSCULAR HEMOGLOBIN CONCENTRATION: 37.8 G/DL
  MEAN CORPUSCULAR VOLUME: 63.7 fL
  MONOCYTE: 1.67%
  NEUTROPHIL: 7.67%
  NUCLEATED RED BLOOD CELLS: 0.67 /100WBC
  PLATELET COUNT: 1489.67 x10E3/uL
  ALANINE AMINOTRANSFERASE: 39 u/L
  ALBUMIN: 3.93 G/DL
  ALKALINE PHOSPHATASE: 463.33 u/L
  ASPARTATE AMINOTRANSFERASE: 92.67 u/L
  BLOOD UREA NITROGEN: 18.33 mg/dL
  CARBON DIOXIDE: 28.33 mmol/L
  CHLORIDE: 105.33 MEQ/L
  CHOLESTEROL: 70.67 mg/dL
  CREATINE PHOSPHOKINASE: 529 u/L
  CREATININE: 0.19 mg/dL
  GLUCOSE: 169 mg/dL
  LACTATE DEHYDROGENASE: 102.33 u/L
  LIPASE: 8 u/L
  PHOSPHORUS: 12.13 mg/dL
  POTASSIUM: 6.59 MEQ/L
  SODIUM: 147.43 MEQ/L
  TOTAL BILIRUBIN: 0.2 mg/dL
  TOTAL PROTEIN: 5.63 G/DL
  URIC ACID: 1.63 mg/dL
